Here are results for 1 substance from patent publication US10066272B2, “Human homeobox gene ventx and macrophage terminal differentiation and activation, compositions and methods thereof” (priority 2011, dated 2018).

This series relates to macrophages. Put plainly: Macrophage classical activation after siRNA transfection, surface markers by flow cytometry. It counts as cell-based, human. Particulars: transfected macrophages. The method, then:
Macrophages were generated through incubation of freshly isolated monocytes with 100 ng/mL M-CSF for 4 days. These macrophages were then transfected with siGFP or siVentX, respectively, and further cultured in RPMI 1640 medium for additional 3 days. Thereafter, cells were exposed to 1 μg/mL LPS plus 20 ng/mL γ-IFN for 6 hours. (A) Surface staining of CD40, CD80, CD86 and HLA-DR and intracellular staining of TNF-α and IL1-β were analyzed by flow cytometry. (B) Secreted TNF-α, IL1-β and IL12p70 from culture supernatants were determined with ELISA kits. (C) Reactive oxygen species (ROS) from siGFP or siVentX transfected macrophages were analyzed with fluorescence microscope (left) and flow cytometry (middle). […] (D) Nitrate level from siGFP and siVentX transfected macrophages. Data represent mean+SD of three different experiments. (E) Phagocytosis of siGFP and siVentX transfected macrophage. Red histogram represents transfection with siGFP; green histogram represents transfection with siVentX. Left panel: cells were incubated on ice; right panel: cells were incubated at 37° C. (F) Effects of VentX knockdown on mixed lymphocyte reaction. […]
(A) Effects VentX over-expression on the expression of LPS and IFN-γ pathways components. […] No significant binding of VentX to the promoter regions of STAT1 and JunB was detected by the ChIP assay. […]
A general note: In flow cytometry, cells or beads pass a laser one at a time.

Consider “siVentX: VentX siRNA, forward 5′-UUCAGAAUCGCCGCAUGAAACACAAACGG-3′ (SEQ ID NO:4), reverse SEQ ID NO:5 (antisense CCGUUUGUGUUUCAUGCGGCGAUUCUGAA; listed as RNA, chemistry not given here)”, for which, where the note is “LPS plus IFN-γ, HLA-DR not affected (FIG. 8A)”, the “surface expression of CD40, CD80 and CD86” value is “significantly down-regulated”. Also, the “surface expression of CD119 (IFN-γ receptor 1), CD14 and TLR4” value (flow cytometry (FIG. 9C)) was “significantly diminished”.
